According to patent US20180177749A1, “USE OF CYP EXPRESSION TO DIRECT THERAPEUTIC INTERVENTION IN CANCER” (REGENTS OF THE UNIVERSITY OF MINNESOTA, priority 2016, published 2018):

System: MDA-MB-231 xenograft
Experiment: RPPA of protein expression, MDA-MB-231 xenograft endpoint analysis
Format: in vivo, nude mice
Settings: 4 mg/kg/day vs. PBS
Description: Frozen xenograft tissue samples were embedded in OCT, and 8 μm sections were obtained using a cryostat. […] The resulting whole tissue lysates were boiled for 8 min at 100° C. and then printed onto a nitrocellulose slide (Avid, Grace Biolabs) along with a BSA protein concentration curve to estimate total protein concentration in each lysate. Total protein levels were assessed in each sample by staining with Sypro Ruby Protein Blot Stain (Invitrogen) according to manufacturer's instructions.
The total protein concentration in each sample was estimated by printing onto a nitrocellulose slide along with a BSA standard concentration curve, and total protein levels were assessed by staining with Sypro Ruby Protein Blot Stain (Invitrogen) according to manufacturer's instructions. Tissue lysates were diluted to 250 μg/ml in extraction buffer and stored at −80° C. prior to printing of arrays. RPPA printing and analysis of xenograft samples was conducted as previously described (Wulfkuhle et al., Clin Cancer Res. 2012; 18:6426-35). Antibody staining intensities were quantified using the MicroVigene v5 Software Package (Vigenetech). Signaling pathway activation was evaluated by staining the arrays with 156 antibodies against signaling endpoints, mainly phosphorylated and cleaved protein products. Before use for RPPA analysis, antibody specificity was confirmed by Western blot and analysis as previously described (Wulfkuhle et al., Clin Cancer Res. 2012; 18:6426-35).

## CCCCCCNC(=N)NC(=N)NCc1ccccc1 [HBB, N1-hexyl-N5-benzyl-biguanide]
  fold change: 4EBP1 S65: 1.143
  fold change: 4EBP1 T37/46: 0.828
  fold change: 4EBP1 T70: 1.117
  fold change: A-Raf S299: 1.335
  fold change: AKT S473: 1.795
  fold change: AKT T308: 1.987
  fold change: ALK: 1.368
  fold change: ALK Y1604: 1.302
  fold change: AMPKalpha S485: 2.359
  fold change: AMPKbeta S108: 1.081
  fold change: ATF2 T69/71: 0.959
  fold change: ATM S1981: 1.438
  fold change: ATP CItrate Lyase S454: 1.229
  fold change: ATR S428: 1.345
  fold change: AXL: 1.199
  fold change: Acetyl-CoA Carboxylase S79: 1.295
  fold change: Actin beta: 1.000
  fold change: Aurora A T288/B T232/C T198: 1.651
  fold change: B-RAF: 1.341
  fold change: B-Raf S445: 1.392
  fold change: BAD: 1.198
  fold change: BAD S112: 1.355
  fold change: BAD S136: 1.550
  fold change: BCL-2: 1.315
  fold change: BIM: 1.211
  fold change: Bak: 1.254
  fold change: Bax: 1.132
  fold change: Bcl_xL: 1.275
  fold change: Beclin 1: 1.235
  fold change: CREB S133: 1.164
  fold change: Cl Caspase 3 D175: 1.484
  fold change: Cl Caspase 9 D315: 1.437
  fold change: Cl Caspase 9 D330: 1.492
  fold change: Cleaved PARP D214: 1.223
  fold change: Cofilin S3: 1.783
  fold change: CrkL Y207: 1.186
  fold change: Cyclin A: 1.513
  fold change: Cyclin B1 V152: 1.294
  fold change: Cyclin D1 (G124-326): 1.272
  fold change: Cyclin D1 T286: 1.693
  fold change: E-Cadherin: 1.903
  fold change: EGFR: 1.184
  fold change: EGFR Y992: 1.970
  fold change: EGFR Y1068: 1.557
  fold change: EGFR Y1148: 1.407
  fold change: EGFR Y1173: 1.388
  fold change: ER TOTAL: 1.304
  fold change: ER alpha S118: 1.293
  fold change: ERK 1-2 T202/Y204: 1.337
  fold change: ERK TOTAL: 1.242
  fold change: Elk S383: 1.926
  fold change: Ephrin A3 Y799/A4 Y799/A5 Y833: 1.553
  fold change: ErbB2/HER2 Y877: 1.283
  fold change: ErbB2/HER2 Y1248: 1.717
  fold change: ErbB3/HER3: 0.828
  fold change: ErbB3/HER3 Y1197: 1.363
  fold change: ErbB3/HER3 Y1289: 1.558
  fold change: FAK Y576/577: 1.291
  fold change: FKHR T24/FKHRL1 T32: 1.039
  fold change: FKHRL1 S253: 1.671
  fold change: FOXO1 S256: 1.338
  fold change: GRB2: 1.013
  fold change: GSK-3alpha/beta S21/9: 1.294
  fold change: HIF-1 alpha: 1.096
  fold change: HSP27 S82: 0.821
  fold change: HSP70: 1.429
  fold change: HSP90a T5/7: 1.555
  fold change: Heregulin: 0.654
  fold change: Histone H3 S28: 1.222
  fold change: IGF1R Y1135/36-IR Y1150/51: 1.118
  fold change: IGF-1R Y1131/IR Y1146: 1.596
  fold change: IGFBP7: 1.180
  fold change: IL6: 1.192
  fold change: IRS1: 0.996
